Results as given in ChEMBL document CHEMBL3856250, “Discovery of 6-Fluoro-5-(R)-(3-(S)-(8-fluoro-1-methyl-2,4-dioxo-1,2-dihydroquinazolin-3(4H)-yl)-2-methylphenyl)-2-(S)-(2-hydroxypropan-2-yl)-2,3,4,9-tetrahydro-1H-carbazole-8-carboxamide (BMS-986142): A Reversible Inhibitor of Bruton's Tyrosine Kinase (BTK) Conformationally Constrained by Two …” (J Med Chem, 2016).
pIC50: −log10 of the molar value. ≈ marks a conversion by molar mass, not a printed value.

Key:
Cytochrome P450 2B6 = target: T1, Cytochrome P450 2B6 (Homo sapiens, UniProt P20813); assay: Inhibition of CYP2B6 (unknown origin); format: ADME
T1 sequence (P20813 whole entry): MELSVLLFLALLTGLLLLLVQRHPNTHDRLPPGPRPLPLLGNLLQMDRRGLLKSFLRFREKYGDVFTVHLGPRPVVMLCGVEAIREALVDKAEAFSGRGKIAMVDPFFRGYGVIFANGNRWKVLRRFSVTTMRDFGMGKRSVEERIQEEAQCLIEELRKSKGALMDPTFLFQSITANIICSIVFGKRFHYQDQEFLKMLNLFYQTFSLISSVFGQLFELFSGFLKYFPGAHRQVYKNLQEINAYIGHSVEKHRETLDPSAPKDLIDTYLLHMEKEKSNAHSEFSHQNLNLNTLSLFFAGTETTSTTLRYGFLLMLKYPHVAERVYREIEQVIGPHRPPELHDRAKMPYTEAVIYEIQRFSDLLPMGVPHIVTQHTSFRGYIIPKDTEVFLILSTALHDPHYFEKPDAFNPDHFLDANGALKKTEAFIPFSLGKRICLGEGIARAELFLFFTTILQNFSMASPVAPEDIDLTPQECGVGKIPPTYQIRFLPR

[1] = Tmax in dog at 2 mg/kg, po; format: ADME, organism-based, Canis lupus familiaris; settings: in vivo
[2] = Tmax in rat at 5 mg/kg, po; format: ADME, organism-based; settings: in vivo
[3] = Half life in dog at 1 mg/kg, iv; format: ADME, organism-based, Canis lupus familiaris; settings: in vivo
[4] = target: T2, Tyrosine-protein kinase BTK (Homo sapiens, UniProt Q06187); assay: Inhibition of BTK in human Ramos-B cells assessed as suppression of BCR/anti-IgM-stimulated Ca2+ flux after 1 hr incubation in dark by FLIPR1 assay
[5] = AUC in dog at 2 mg/kg, po; format: ADME, organism-based, Canis lupus familiaris; settings: in vivo
Cytochrome P450 2C8 = target: T3, Cytochrome P450 2C8 (Homo sapiens, UniProt P10632); assay: Inhibition of CYP2C8 (unknown origin); format: ADME
T3 sequence (P10632 whole entry): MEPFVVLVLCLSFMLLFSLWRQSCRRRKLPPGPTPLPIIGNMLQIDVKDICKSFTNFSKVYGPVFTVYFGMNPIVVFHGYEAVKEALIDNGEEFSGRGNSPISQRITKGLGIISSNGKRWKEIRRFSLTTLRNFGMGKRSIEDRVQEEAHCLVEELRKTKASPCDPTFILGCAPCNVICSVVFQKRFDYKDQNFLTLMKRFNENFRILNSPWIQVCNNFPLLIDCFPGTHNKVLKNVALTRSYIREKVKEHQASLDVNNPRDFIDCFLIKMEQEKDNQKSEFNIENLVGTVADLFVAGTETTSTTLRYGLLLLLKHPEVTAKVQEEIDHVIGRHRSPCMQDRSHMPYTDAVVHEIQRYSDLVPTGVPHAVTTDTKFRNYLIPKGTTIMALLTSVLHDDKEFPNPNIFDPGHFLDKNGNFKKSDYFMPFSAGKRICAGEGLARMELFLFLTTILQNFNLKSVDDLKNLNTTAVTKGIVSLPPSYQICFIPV

[6] = target: T4, Tyrosine-protein kinase ITK/TSK (Homo sapiens, UniProt Q08881); assay: Inhibition of ITK in human peripheral T cells assessed as suppression of TCR/anti-CD3-stimulated protein catalyzed PLCgamma1 phosphorylation; format: cell-based, T-cell
T4 sequence (Q08881 whole entry): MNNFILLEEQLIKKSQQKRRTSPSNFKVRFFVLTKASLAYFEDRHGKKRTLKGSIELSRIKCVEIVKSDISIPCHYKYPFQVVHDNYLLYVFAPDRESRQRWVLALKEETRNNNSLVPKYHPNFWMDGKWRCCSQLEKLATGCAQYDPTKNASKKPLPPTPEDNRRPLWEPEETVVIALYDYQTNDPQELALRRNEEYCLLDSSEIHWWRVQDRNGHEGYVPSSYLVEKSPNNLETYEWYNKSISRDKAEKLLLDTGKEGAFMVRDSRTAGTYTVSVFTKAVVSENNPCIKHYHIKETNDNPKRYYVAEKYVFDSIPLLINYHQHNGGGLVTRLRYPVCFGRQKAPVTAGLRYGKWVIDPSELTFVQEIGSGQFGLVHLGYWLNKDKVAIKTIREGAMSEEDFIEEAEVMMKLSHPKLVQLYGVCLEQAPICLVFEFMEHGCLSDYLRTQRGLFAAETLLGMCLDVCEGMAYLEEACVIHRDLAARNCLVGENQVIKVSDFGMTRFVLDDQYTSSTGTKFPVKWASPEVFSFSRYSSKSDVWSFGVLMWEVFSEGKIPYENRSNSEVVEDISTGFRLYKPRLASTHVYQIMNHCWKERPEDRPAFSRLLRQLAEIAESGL

[7] = Tmax in mouse at 6 mg/kg, po; format: ADME, organism-based; settings: in vivo
[8] = Solubility of the compound in fed state stimulated intestinal fluid; format: ADME; settings: fed state simulated intestinal fluid (FeSSIF)
[9] = Protein binding in dog plasma; format: ADME, cell-free, Canis lupus familiaris; settings: read-out: PPB (converted)
[10] = target: T2, Tyrosine-protein kinase BTK; assay: Inhibition of BTK in human peripheral B cells assessed as suppression of BCR/anti-IgM/IgG-stimulated CD86 surface expression; format: cell-based
[11] = Clearance in cynomolgus monkey at 2 mg/kg, iv; format: ADME, organism-based, Macaca fascicularis; settings: in vivo
[12] = Cmax in mouse at 10 mg/kg, iv or po; format: ADME, organism-based; settings: in vivo
[13] = Distribution coefficient, log D of the compound at pH 7.0 by HPLC method; format: physicochemical; settings: octanol/water
[14] = target: T2, Tyrosine-protein kinase BTK; assay: Inhibition of BTK in human whole blood assessed as suppression of BCR/anti-IgM/IgG-stimulated CD69 surface expression after 18 hrs with agitation by FITC-staining based FACS analysis; format: tissue-based
[15] = MRT in cynomolgus monkey at 2 mg/kg, iv; format: ADME, organism-based, Macaca fascicularis; settings: in vivo
[16] = Half life in mouse at 3 mg/kg, iv; format: ADME, organism-based; settings: in vivo
[17] = Volume of distribution at steady state in dog at 1 mg/kg, iv; format: ADME, organism-based, Canis lupus familiaris; settings: in vivo, read-out: Vdss
[18] = Cmax in mouse at 6 mg/kg, po; format: ADME, organism-based; set-up: dose 6 mg/kg, route oral; settings: in vivo
[19] = Volume of distribution at steady state in rat at 2 mg/kg, iv; format: ADME, organism-based; settings: in vivo, read-out: Vdss
Mus musculus = assay: Antiathritis activity in anticollagen antibody-induced arthritis BALB/c mouse model assessed as reduction in LPS-induced paw swelling at 20 mg/kg, po qd followed by LPS addition on day 3 measured after 11 days relative to control; format: functional; set-up: scale not given: the % may be the effect or the level left
[20] = Cmax in cynomolgus monkey at 4 mg/kg, po; format: ADME, organism-based, Macaca fascicularis; set-up: dose 4 mg/kg, route oral; settings: in vivo
[21] = Clearance in dog at 1 mg/kg, iv; format: ADME, organism-based, Canis lupus familiaris; settings: in vivo
[22] = Oral bioavailability in rat at 5 mg/kg; format: ADME, organism-based; settings: in vivo
[23] = target: Proto-oncogene tyrosine-protein kinase Src (Homo sapiens, UniProt P12931); assay: Inhibition of SRC (unknown origin)
[24] = MRT in dog at 1 mg/kg, iv; format: ADME, organism-based, Canis lupus familiaris; settings: in vivo
[25] = Protein binding in mouse plasma; format: ADME, cell-free; settings: read-out: PPB (converted)
[26] = Clearance in rat at 2 mg/kg, iv; format: ADME, organism-based; settings: in vivo
[27] = Half life in rat at 2 mg/kg, iv; format: ADME, organism-based; settings: in vivo
[28] = Oral bioavailability in mouse at 3 mg/kg; format: ADME, organism-based; settings: in vivo

T2 sequence (Q06187 whole entry): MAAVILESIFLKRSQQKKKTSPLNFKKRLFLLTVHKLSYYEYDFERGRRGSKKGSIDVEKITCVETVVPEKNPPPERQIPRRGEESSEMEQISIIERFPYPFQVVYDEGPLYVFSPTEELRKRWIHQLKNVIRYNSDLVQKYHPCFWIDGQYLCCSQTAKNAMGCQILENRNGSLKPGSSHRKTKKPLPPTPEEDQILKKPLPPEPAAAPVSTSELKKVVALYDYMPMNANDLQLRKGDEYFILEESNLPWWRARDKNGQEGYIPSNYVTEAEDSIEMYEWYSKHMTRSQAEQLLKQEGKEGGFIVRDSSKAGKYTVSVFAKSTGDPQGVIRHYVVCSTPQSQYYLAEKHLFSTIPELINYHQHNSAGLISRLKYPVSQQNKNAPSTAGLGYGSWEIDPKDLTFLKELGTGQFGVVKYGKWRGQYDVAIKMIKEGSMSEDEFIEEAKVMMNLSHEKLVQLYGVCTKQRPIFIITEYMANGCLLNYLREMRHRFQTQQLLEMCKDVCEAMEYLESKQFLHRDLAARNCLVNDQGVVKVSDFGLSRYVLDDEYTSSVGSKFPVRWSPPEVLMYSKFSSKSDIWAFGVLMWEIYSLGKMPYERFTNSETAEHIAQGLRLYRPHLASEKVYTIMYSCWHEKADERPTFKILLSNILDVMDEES
Sequence of Proto-oncogene tyrosine-protein kinase Src (P12931 2-536 limits assumed): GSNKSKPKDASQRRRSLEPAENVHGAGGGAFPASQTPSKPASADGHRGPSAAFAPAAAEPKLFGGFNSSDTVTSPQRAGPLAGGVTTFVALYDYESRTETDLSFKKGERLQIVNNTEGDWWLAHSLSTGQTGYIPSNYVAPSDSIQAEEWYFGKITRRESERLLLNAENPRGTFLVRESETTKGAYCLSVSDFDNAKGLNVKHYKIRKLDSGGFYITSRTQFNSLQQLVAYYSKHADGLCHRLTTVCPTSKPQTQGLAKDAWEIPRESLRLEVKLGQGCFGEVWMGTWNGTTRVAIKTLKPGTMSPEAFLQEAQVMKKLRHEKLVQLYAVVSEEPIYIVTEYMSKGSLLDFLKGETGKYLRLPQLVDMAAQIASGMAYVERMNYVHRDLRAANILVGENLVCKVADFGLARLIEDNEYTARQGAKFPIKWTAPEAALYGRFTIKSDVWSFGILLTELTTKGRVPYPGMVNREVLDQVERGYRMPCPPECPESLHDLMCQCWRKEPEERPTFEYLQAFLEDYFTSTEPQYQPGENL

pIC50 (Cytochrome P450 2B6): < 4.40 | Tmax [1]: 3 h | Tmax [2]: 3 h | half-life [3]: 13 h | pIC50 [4]: 8.05 | AUC [5]: 16 µM·h | pIC50 (Cytochrome P450 2C8): 5.59 | pIC50 [6]: 6.39 | Tmax [7]: 1 h | solubility [8]: 368 µg/mL (≈ 643 µM) | fraction unbound [9]: 0.009 | pIC50 [10]: 8.40 | clearance [11]: 10 mL/min/kg | Cmax [12]: 4.9 µM | logD [13]: 4.06 | pIC50 [14]: 7.05 | MRT [15]: 4.7 h | half-life [16]: 3.4 h | Vd [17]: 3.4 L/kg | Cmax [18]: 4.9 µM | Vd [19]: 1.3 L/kg | Cmax [20]: 0.85 µM | clearance [21]: 3.2 mL/min/kg | bioavailability [22]: 67% | pIC50 [23]: 5.96 | MRT [24]: 18 h | fraction unbound [25]: 0.015 | clearance [26]: 4.2 mL/min/kg | half-life [27]: 3.6 h | bioavailability [28]: 93%
SMILES: Cc1c(-c2c(F)cc(C(N)=O)c3[nH]c4c(c23)CC[C@H](C(C)(C)O)C4)cccc1-n1c(=O)c2cccc(F)c2n(C)c1=O (atropisomer R) [BMS-986142]
Activity (Mus musculus): 100%
